# Measured values taken from PMC5680178, “D-Cateslytin, a new antimicrobial peptide with therapeutic potential” (Scientific Reports, 2017).
# Where two headings read alike, the source gives them in different places. Non-standard residues stand in square brackets, D forms with d. Residues, ends and D or L forms follow the SMILES beside them. No end group written: not given here.
# Experiments:
# [1] = tested on: Parvimonas micra (ATCC 33270); details: for FIC: MICcombination/MICalone; for FICI: sum of both FICs; for MIC (MIC alone): broth microdilution, Anaerobe Basal broth, 24 h, OD600, 100% inhibition, modified Gompertz function, biological replicates
# Experimental: (§5) According to the European Committee on Antimicrobial Susceptibility Testing[20], the effect of a combination between two antibacterial compounds can be evaluated by their FICI (Fractional Inhibitory Concentration Index). The FICI consists of the sum of the FICs of both antibacterial agents: FIC index = FICantimicrobial + FICD-Ctl. For each compound, the FIC was determined as the ratio between the MIC of the compound in combination (MICcombination) and the MIC of the compound acting alone (MICalone). On the basis of their FIC index, each combination was categorized as synergistic (≤0.5), additive (>0.5 to 1), indifferent (>1 to <4) or antagonistic (≥4).
# (§6) Microorganisms were cultured according to the manufacturer’s or the owner’s instructions in their respective media: Luria Bertani broth (Sigma) was used for E. coli strains, Mueller Hinton broth (Difco) for S. aureus strains and Anaerobe Basal broth (Oxoid) for F. nucleatum, P. intermedia and P. micra.
# (§7) The MIC was determined by broth microdilution. An overnight culture of each bacterial strain was diluted (approximately to OD600 = 0,001) and microorganisms were plated in 96-well plates in the presence of different concentrations of antimicrobials, D-Ctl or L-Ctl alone or in combination. Three technical replicates were performed for each condition. After 24 hours of incubation, the microorganism growth was assessed by optical density OD600 using a Multiskan™ EX microplate spectrophotometer (Thermo Fisher Scientific). […] Each experiment was performed with at least three biological replicates.
# [2] = tested on: Prevotella intermedia (ATCC 49046); details: for FICI: sum of both FICs; for MIC (MIC alone): ATCC 49046, 24 h
# Experimental: as §5, §6, §7
# [3] = tested on: Fusobacterium nucleatum (ATCC 49256); details: for FICI: sum of both FICs; for MIC (MIC alone): ATCC 49256, 24 h
# Experimental: as §5, §6, §7
# [4] = tested on: Prevotella intermedia (ATCC 49046); assay: microbe, parasite or virus in culture; details: ATCC49046, 24 h, read-out: MIC (MIC alone)
# Experimental: as §5, §6, §7
# [5] = tested on: Fusobacterium nucleatum (ATCC 49256); assay: microbe, parasite or virus in culture; details: ATCC49256, 24 h, read-out: MIC (MIC alone)
# Experimental: as §5, §6, §7
# [6] = tested on: Parvimonas micra (ATCC 33270); assay: microbe, parasite or virus in culture; details: ATCC33270, 24 h, read-out: MIC (MIC alone)
# Experimental: as §5, §6, §7
# [7] = tested on: Escherichia coli (ATCC 25922); assay: microbe, parasite or virus in culture; assay type: cell-based
# Experimental: (§1) The MIC was determined by broth microdilution. […] Three technical replicates were performed for each condition.
# [8] = tested on: E. coli (ATCC 25922) wild type; details: cultured with ½ MIC of the agent, diluted daily, for 24 days; value at day 24; three technical replicates
# Experimental: An E. coli (ATCC® 25922™) culture was sequentially diluted every day in the presence of the different antibacterial compounds: D-Ctl, ampicillin or cefotaxime at ½ MIC during 24 days. The changes in the MICs values were determined as previously described by broth microdilution at the indicated times. The experiment was performed with three technical replicates.
# [9] = tested on: Escherichia coli (MDR) (K-12); assay: microbe, parasite or virus in culture; details: 24 h, read-out: MIC (MIC alone)
# Experimental: as §5, §6, §7
# [10] = tested on: Escherichia coli (MDR) (K-12); details: for FIC: MICcombination/MICalone; for FICI: sum of both FICs; for MIC (MIC alone): broth microdilution, Luria Bertani broth, 24 h, OD600, lowest concentration inhibiting 100% of inoculum, modified Gompertz function, biological replicates
# Experimental: as §5, §6, §7
# [11] = tested on: Staphylococcus aureus (MRSA) (S1); details: for FIC: MICcombination/MICalone; for FICI: sum of both FICs
# Experimental: as §5, §6, §7
# [12] = tested on: secreted proteases from P. intermedia; details: 400 μL filtered culture supernatant of P. intermedia, 37 °C, 24 hours; RP-HPLC C18, 214 nm, versus peptide in water
# Experimental: (§2) Bacterial supernatant was prepared as follows: a single colony of each strain was resuspended in 5 mL of culture medium as indicated above and incubated at 37 °C overnight. The culture was then centrifuged at 10000 g for 1 min and the supernatant was filtered using a […] MillexH-GV (Millipore, Carrigtwohill, Ireland). An aliquot of each supernatant was incubated at 37 °C for 48 hours. Absence of growth was interpreted as lack of viable microorganism. 400 μL of supernatant was then incubated with or without each peptide of interest at 37 °C for 24 hours. As a control, each peptide was incubated in water at 37 °C for 24 hours. Samples were then separated using a Dionex HPLC system (Ultimate 3000; Sunnyvale, CA USA) on a Nucleosil reverse-phase 300–5C18-column ([…]; particle size: […]; porosity, 300 Å) (Macherey Nagel, Hoerdt, France). Absorbance was monitored at 214 nm and the solvent system consisted of 0.1% (v/v) TFA in water (solvent A) and 0.09% (v/v) TFA in 70% (v/v) acetonitrile-water (solvent B). Elution was performed at a flow rate of […] with a gradient of solvent B as indicated on the chromatograms.
# [13] = tested on: secreted proteases from S. aureus methicillin resistant (MRSA); details: 400 μL filtered culture supernatant of MRSA, 37 °C, 24 hours; RP-HPLC C18, 214 nm, versus peptide in water
# Experimental: as §2
# [14] = tested on: secreted proteases from P. micra; details: 400 μL filtered culture supernatant of P. micra, 37 °C, 24 hours; RP-HPLC C18, 214 nm, versus peptide in water
# Experimental: as §2
# [15] = tested on: secreted proteases from E. coli wild type; details: 400 μL filtered culture supernatant of E. coli wild type, 37 °C, 24 hours; RP-HPLC C18, 214 nm, versus peptide in water
# Experimental: as §2
# [16] = tested on: secreted proteases from S. aureus methicillin sensitive (MSSA); details: 400 μL filtered culture supernatant of MSSA, 37 °C, 24 hours; RP-HPLC C18, 214 nm, versus peptide in water
# Experimental: as §2
# [17] = tested on: secreted proteases from E. coli MDR; details: 400 μL filtered culture supernatant of E. coli MDR, 37 °C, 24 hours; RP-HPLC C18, 214 nm, versus peptide in water
# Experimental: as §2
# [18] = tested on: secreted proteases from F. nucleatum; details: 400 μL filtered culture supernatant of F. nucleatum, 37 °C, 24 hours; RP-HPLC C18, 214 nm, versus peptide in water
# Experimental: as §2
# [19] = tested on: Staphylococcus aureus (MSSA) (ATCC 25923); assay: microbe, parasite or virus in culture; details: for FIC: MICcombination/MICalone; for FICI: sum of both FICs
# Experimental: as §1
# [20] = tested on: Staphylococcus aureus (MRSA) (S1); assay: microbe, parasite or virus in culture; details: 24 h, read-out: MIC (MIC alone)
# Experimental: as §5, §6, §7
# aureolysin = details: cited from earlier work
# Text: (§3) To this aim, different bacterial ...
# V8 = details: cited from earlier work
# Text: as §3
# [21] = tested on: epithelial cells, smooth muscle cells and T cells; details: cited from earlier work
# Text: In the last decade, there have been a few HDPs entering clinical trials, specifically cathelicidins and defensins natural peptides or derivatives such as LL-37, MBI-226 (studies NCT00211523, NCT00211497 and NCT00027248 for the prevention of central venous catheter-related bloodstream infections and acne) and PMX-30063 (study NCT01211470 for acute bacterial skin and skin-structure infection). However, the clinical and commercial development of these peptide-based drugs has some limitations such as high cost of production, susceptibility to proteases and cytotoxicity. For example, the human cath ...
# [22] = tested on: secreted proteases from S. aureus methicillin resistant (MRSA); details: supernatant of MRSA, previous study; cited from earlier work
# Text: (§4) Linear L-peptides with α-helical structures are usually susceptible to proteolysis. […] The specific spatial configurations of the cleavage sites for these enzymes are not present in D-peptides although these peptides might be cleaved by non-specific hydrolysis during enzymatic digestion. Subsequently, we assessed the sensitivity of D-Ctl to secreted bacterial proteases by HPLC. To this aim, different bacterial ...
# [23] = tested on: secreted proteases from S. aureus methicillin sensitive (MSSA); details: supernatant of MSSA, previous study; cited from earlier work
# Text: as §4
# [24] = combination D-Ctl + amoxicillin
# [25] = combination D-Ctl + amoxicillin, category by FIC index
# [26] = combination D-Ctl + amoxicillin, MICcombination/MICalone
# [27] = broth microdilution, Mueller Hinton broth, 24 h, OD600, 100% inhibition, modified Gompertz function, biological replicates
# [28] = combination D-Ctl + methicillin
compound,measurement,setting,value
CC1(C)S[C@@H]2[C@H](NC(=O)[C@H](N)c3ccc(O)cc3)C(=O)N2[C@H]1C(=O)O [Amoxicillin],FIC,[1]; [24],0.25
same,Effect,[1]; [25],Synergistic
same,FICI,[1]; [24],0.5
same,FIC,[2]; [26],0.25
same,Effect,[2]; [25],Synergistic
same,FICI,[2]; [24],0.5
same,FIC,[3]; [26],0.5
same,Effect,[3]; [25],Additive
same,FICI,[3]; [24],1.0
same,MIC,[4],0.5 µg/mL
same,MIC,[5],0.6 µg/mL
same,MIC,[6],0.5 µg/mL
CC1(C)S[C@@H]2[C@H](NC(=O)[C@H](N)c3ccccc3)C(=O)N2[C@H]1C(=O)O [Ampicillin],MIC,"[7]; Escherichia coli, ATCC25922, broth microdilution, Luria Bertani broth, 24 h, OD600, lowest concentration inhibiting 100% of inoculum, modified Gompertz function, biological replicates, read-out: MIC",7 µg/mL
same,fold change in MIC under selective pressure,[8],3 x MIC
CO/N=C(\C(=O)N[C@@H]1C(=O)N2C(C(=O)O)=C(COC(C)=O)CS[C@H]12)c1csc(N)n1 [Cefotaxime],MIC,[9],0.1 µg/mL
same,fold change in MIC under selective pressure,[8],3 x MIC
same,FIC,[10]; combination D-Ctl + cefotaxime,0.5
same,Effect,"[10]; combination D-Ctl + cefotaxime, category by FIC index",Additive
same,FICI,[10]; combination D-Ctl + cefotaxime,1.0
"CSCC[C@@H](NC(=O)[C@@H](CO)NC(=O)[C@H](N)CCCNC(=N)N)C(=O)N[C@H](CCCNC(=N)N)C(=O)N[C@H](CC(C)C)C(=O)N[C@H](CO)C(=O)N[C@H](Cc1ccccc1)C(=O)N[C@H](CCCNC(=N)N)C(=O)N[C@H](C)C(=O)N[C@H](CCCNC(=N)N)C(=O)NCC(=O)N[C@H](Cc1ccc(O)cc1)C(=O)NCC(=O)N[C@H](Cc1ccccc1)C(=O)N[C@H](CCCNC(=N)N)C(=O)O [D-Ctl, D-Cateslytin] (H-[dR][dS][dM][dR][dL][dS][dF][dR][dA][dR]G[dY]G[dF][dR]-OH)",MIC (MIC alone),[1],23 µg/mL
same,FIC,[1]; [24],0.25
same,FICI,[1]; [24],0.5
same,MIC (MIC alone),[11]; [27],18 µg/mL
same,FIC,[11]; combination D-Ctl + vancomycin,1
same,FICI,[11]; combination D-Ctl + vancomycin,2
same,MIC (MIC alone),[2],10 µg/mL
same,FICI,[2]; [24],0.5
same,MIC (MIC alone),[3],22 µg/mL
same,FICI,[3]; [24],1.0
same,stability in bacterial supernatant,[12],not degraded
same,stability in bacterial supernatant,[13],not degraded
same,stability in bacterial supernatant,[14],not degraded
same,stability in bacterial supernatant,[15],not degraded
same,stability in bacterial supernatant,[16],not degraded
same,stability in bacterial supernatant,[17],not degraded
same,stability in bacterial supernatant,[18],not degraded
same,MIC,"[7]; ATCC 25922, 24 h",8.0 µg/mL
same,MIC (MIC alone),[10],8.4 µg/mL
same,FIC,[10]; combination D-Ctl + cefotaxime,0.5
same,FICI,[10]; combination D-Ctl + cefotaxime,1.0
same,MIC (MIC alone),[19]; [27],24 µg/mL
same,FIC,[19]; [28],0.5
same,FICI,[19]; [28],0.75
NC[C@H]1O[C@H](O[C@H]2[C@H](O)[C@@H](O[C@H]3O[C@H](CO)[C@@H](O)[C@H](N)[C@H]3O)[C@H](N)C[C@@H]2N)[C@H](O)[C@@H](O)[C@@H]1O [Kanamycin],MIC,"[7]; broth microdilution, Luria Bertani broth, 24 h, OD600, lowest concentration inhibiting 100% of inoculum, modified Gompertz function, biological replicates",21.6 µg/mL
COc1cccc(OC)c1C(=O)N[C@@H]1C(=O)N2[C@@H]1SC(C)(C)[C@@H]2C(=O)O [Methicillin],MIC,"[19]; Staphylococcus aureus, 24 h, read-out: MIC (MIC alone)",1.2 µg/mL
same,FIC,[19]; [28],0.25
same,MIC combination,"[19]; combination D-Ctl + methicillin, broth microdilution, at least in duplicate",0.3 µg/mL
same,Effect,"[19]; combination D-Ctl + methicillin, category by FIC index",Additive
same,FICI,[19]; [28],0.75
CN[C@H](CC(C)C)C(=O)N[C@H]1C(=O)N[C@@H](CC(N)=O)C(=O)N[C@H]2C(=O)N[C@H]3C(=O)N[C@H](C(=O)N[C@H](C(=O)O)c4cc(O)cc(O)c4-c4cc3ccc4O)[C@H](O)c3ccc(c(Cl)c3)Oc3cc2cc(c3O[C@@H]2O[C@H](CO)[C@@H](O)[C@H](O)[C@H]2O[C@H]2C[C@](C)(N)[C@H](O)[C@H](C)O2)Oc2ccc(cc2Cl)[C@H]1O [Vancomycin],FIC,[11]; combination D-Ctl + vancomycin,1
same,Effect,"[11]; combination D-Ctl + vancomycin, category by FIC index",Indifferent
same,FICI,[11]; combination D-Ctl + vancomycin,2
same,MIC,[20],0.8 µg/mL
LL-37: human cathelicidin host defence peptide,proteolysis by secreted S. aureus protease,aureolysin,cleavage
same,proteolysis by secreted S. aureus protease,V8,cleavage
same,level at which apoptosis is enhanced,[21],above 10 µM
"RSMRLSFRARGYGFR [L-Ctl, L-Cateslytin]",MIC (MIC alone),[1],120 µg/mL
same,MIC (MIC alone),[2],149 µg/mL
same,MIC (MIC alone),[3],125 µg/mL
same,stability in bacterial supernatant,[12],resistant to the degradation
same,stability in bacterial supernatant,[14],resistant to the degradation
same,stability in bacterial supernatant,[15],degraded
same,stability in bacterial supernatant,[17],degraded
same,stability in bacterial supernatant,[18],resistant to the degradation
same,MIC,"[7]; ATCC 25922, 24 h",75 µg/mL
same,stability in bacterial supernatant,[22],stable
same,stability in bacterial supernatant,[23],stable
same,MIC (MIC alone),[10],150 µg/mL
